Positions of bridges follow the written chain, without caps; N, C: chain ends. No end group written: not given here.
Tests used:
[1] = test system: LACS expression in cultured myocardial cells; assay: LACS protein expression in cultured myocardial cells under hypertrophic agonist stimulation; assay type: cell-based, rat; details: for LACS protein expression on hypertrophic agonist stimulation: primary cultured neonatal rat myocardial cells
Experimental: Primary cultures of myocardial cells isolated from neonatal rats (one- to three-day old) using trypsin and collagenase were prepared. For the first 24 to 48 hours, the cells were cultured in a serum-containing medium, and then for another 24 hours in a serum-free medium.
Myocardial cells cultured by the same method in Example 4 were used. First, cells were stimulated with the representative hypertrophic agonists, AngII, phenylephrine, and Endothelin-1.
LACS expression which increases upon phenylephrine stimulation was suppressed by the simultaneous administration of 10 μM of Y27632 (ROCK inhibitor; Calbiochem). […] Rho is a low-molecular-weight GTP-binding protein (small G protein) involved in the contraction of smooth muscles, and regulation of cytokinesis, cell motility, and cytomorphology, via reorganization of actin filaments.

[2] = test system: LACS mRNA expression in cardiac tissues; assay: LACS mRNA expression in cardiac tissues of L-NAME-administered WKY rats (Northern blotting); assay type: in vivo, rat; details: male WKY rats, oral L-NAME 100 mg/L
Experimental: RNAs were extracted from the hearts of a male WKY rat group that has been subjected to a one-week oral administration of L-NAME (100 mg/L), and from the hearts of a control group without L-NAME administration. […] As a result, a novel LACS (L-NAME related actin cytoskeletal protein) gene was successfully isolated. […] Furthermore, mRNA expression in tissues other than the heart was also analyzed by Northern blotting. […] Particularly with the heart, the expression of LACS mRNA was confirmed in the myocardial cells.

[3] = test system: LACS mRNA expression in the heart; assay: LACS mRNA expression in the hearts of AngII infusion rats; assay type: in vivo, rat; details: osmotic pump 0.7 mg/kg/day
Experimental: Cardiac tissues derived from AngII infusion rats (osmotic pump: 0.7 mg/kg/day), and SHRs of 4 weeks and 24 weeks, were used. ATIR antagonist (ARB) and hydrazine (Hyd) were used as antihypertensive agents. Each of the antihypertensive agents was used at an amount sufficient for lowering the blood pressure (10 mg/kg/day for ARB; 12 mg/kg/day for Hyd).

Compound	LACS protein expression on hypertrophic agonist stimulation [1]	also measured
CNC[C@H](O)c1cccc(O)c1 [phenylephrine]	found to increase	–
COC(=O)[C@@H](N)CCCN=C(N)N[N+](=O)[O-].Cl [L-NAME, N^G-Nitro-L-arginine methyl ester, hydrochloride]	–	LACS mRNA expression level in cardiac tissues after L-NAME administration [2]: reaches its peak one to three days after L-NAME administration
angiotensin II (DRVYIHPF; Angiotensin-2; UniProt P01019 25-32, looked up) [AngII, representative hypertrophic agonist]	found to increase	LACS expression in the heart after AngII administration [3]: increased LACS expression after the third day
Endothelin-1 (CSCSSLMDKECVYFCHLDIIW; disulfide 1-15, 3-11; ends not checked; UniProt P05305 53-73, looked up) [representative hypertrophic agonist]	found to increase	–
C[C@@H](N)[C@H]1CC[C@H](C(=O)Nc2ccncc2)CC1 [Y27632]	–	Effect on the LACS expression increased by phenylephrine stimulation ([1]; cultured myocardial cells, simultaneous administration of 10 μM): suppressed

— patent publication US7345158B2, “Actin related cytoskeletal protein “LACS”” (Anges MG, Inc., priority 2002, dated 2008)
